Laboratory results taken from patent publication US6376518B1, “Acyl derivatives of 4-demethylpenclomedine, use thereof and preparation thereof” (Southern Research Institute, priority 1999, dated 2002).
Like-named read-outs stand apart in the source and are kept apart here.

Tests used:
[1] = test system: human MX-1 mammary tumor; assay: In vivo antitumor activity vs i.c.-implanted human MX-1 mammary tumor xenograft in athymic mice; details: ic MX-1; for Tumor-Free-Surv/Total / Median % ILS (dying mice only): Days 1-5
[2] = test system: P388/CPA leukemia; assay: Antitumor activity against IP-implanted P388/CPA leukemia in mice; format: in vivo, murine; details: P388/CPA, Q1D × 5 (1)
[3] = test system: P388/0 leukemia; details: P388/0; for MEDIAN DAY OF DEATH: dying mice only
[4] = test system: P388/L-PAM leukemia
[5] = test system: P388/BCNU leukemia; assay: Antitumor activity against IP-implanted P388/BCNU leukemia in mice; details: P388/BCNU; for MEDIAN DAY OF DEATH: dying mice only
[6] = test system: human MX-1 mammary tumor; assay: In vivo antitumor activity vs s.c.-implanted human MX-1 mammary tumor xenograft in athymic mice; details: for antitumor activity (in words): MX-1 implanted s.c. or i.c.
[7] = optimal doses (LD10 or less), schedule QD1-5, administered LP.
[8] = IP 60.0 mg/kg/dose, Q1D × 5 (1)
[9] = IP 90.0 mg/kg/dose, Q1D × 5 (1)
[10] = IP 135.0 mg/kg/dose, Q1D × 5 (1)
[11] = P388/L-PAM, IP 60.0 mg/kg/dose, Q1D × 5 (1)
[12] = P388/L-PAM, IP 90.0 mg/kg/dose, Q1D × 5 (1)
[13] = P388/L-PAM, IP 135.0 mg/kg/dose, Q1D × 5 (1)
[14] = sc MX-1, IP 90 mg/kg/dose, Days 12-16
[15] = sc MX-1, IP 60 mg/kg/dose, Days 12-16
[16] = IP 20.0 mg/kg/dose, Q1D × 1 (1)
[17] = IP 30.0 mg/kg/dose, Q1D × 1 (1)
[18] = sc MX-1, oral (gavage) 135 mg/kg/dose, Days 12-16
[19] = sc MX-1, oral (gavage) 135 mg/kg/dose, Days 13-17

COc1nc(C(Cl)(Cl)Cl)c(Cl)c(O)c1Cl [DM-PEN, 3,5-dichloro-2-methoxy-4-hydroxy-6-(trichloromethyl)pyridine]
Median % ILS (based on dying mice only) [1, 7]: 60% | Survivors [1, 7]: 0/5 | 50-DAY SURV/TOTAL ([2]; IP 60.0 mg/kg/dose): 0/6 | % ILS ([2]; IP 60.0 mg/kg/dose): +22% | APPROX. NET LOG10 CHANGE IN TUMOR BURDEN AT END OF Rx ([2]; IP 60.0 mg/kg/dose): +0.9 | 50-DAY SURV/TOTAL ([2]; IP 90.0 mg/kg/dose): 0/6 | % ILS ([2]; IP 90.0 mg/kg/dose): +54% | APPROX. NET LOG10 CHANGE IN TUMOR BURDEN AT END OF Rx ([2]; IP 90.0 mg/kg/dose): −1.1 | MEDIAN DAY OF DEATH ([2]; IP 90.0 mg/kg/dose, dying mice only): 17.0 | 50-DAY SURV/TOTAL ([2]; IP 135.0 mg/kg/dose): 0/6 | % ILS ([2]; IP 135.0 mg/kg/dose): +31% | APPROX. NET LOG10 CHANGE IN TUMOR BURDEN AT END OF Rx ([2]; IP 135.0 mg/kg/dose): +0.3 | 50-DAY SURV/TOTAL [3, 8]: 0/6 | % ILS [3, 8]: +45% | APPROX. NET LOG10 CHANGE IN TUMOR BURDEN AT END OF Rx [3, 8]: −0.8 | MEDIAN DAY OF DEATH [3, 8]: 16.0 | 50-DAY SURV/TOTAL [3, 9]: 0/6 | % ILS [3, 9]: +72% | APPROX. NET LOG10 CHANGE IN TUMOR BURDEN AT END OF Rx [3, 9]: −3.1 | MEDIAN DAY OF DEATH [3, 9]: 19.0 | 50-DAY SURV/TOTAL [3, 10]: 0/6 | % ILS [3, 10]: −23% | Toxicity / lethality level at the dosage (LD) [3, 10]: TOXIC | MEDIAN DAY OF DEATH [3, 10]: 8.5 | 50-DAY SURV/TOTAL [4, 11]: 0/6 | % ILS [4, 11]: −4% | APPROX. NET LOG10 CHANGE IN TUMOR BURDEN AT END OF Rx [4, 11]: +1.6 | 50-DAY SURV/TOTAL [4, 12]: 0/6 | % ILS [4, 12]: −8% | APPROX. NET LOG10 CHANGE IN TUMOR BURDEN AT END OF Rx [4, 12]: +1.6 | MEDIAN DAY OF DEATH ([4]; P388/L-PAM, IP 90.0 mg/kg/dose, Q1D × 5 (1), dying mice only): 13.0 | 50-DAY SURV/TOTAL [4, 13]: 0/6 | % ILS [4, 13]: −4% | APPROX. NET LOG10 CHANGE IN TUMOR BURDEN AT END OF Rx [4, 13]: +1.6 | Toxicity / lethality level at the dosage (LD) [4, 13]: LD33 | activity in the P388/L-PAM tumor model (in words) ([4]; mouse, in vivo): none of the three showed significant activity | 50-DAY SURV/TOTAL [5, 8]: 0/6 | % ILS [5, 8]: +33% | APPROX. NET LOG10 CHANGE IN TUMOR BURDEN AT END OF Rx [5, 8]: +0.8 | MEDIAN DAY OF DEATH [5, 8]: 12.0 | 50-DAY SURV/TOTAL [5, 9]: 0/6 | % ILS [5, 9]: +55% | APPROX. NET LOG10 CHANGE IN TUMOR BURDEN AT END OF Rx [5, 9]: −0.8 | MEDIAN DAY OF DEATH [5, 9]: 14.0 | 50-DAY SURV/TOTAL [5, 10]: 0/6 | % ILS [5, 10]: +88% | APPROX. NET LOG10 CHANGE IN TUMOR BURDEN AT END OF Rx [5, 10]: −3.1 | Toxicity / lethality level at the dosage (LD) [5, 10]: LD17 | MEDIAN DAY OF DEATH [5, 10]: 17.0

CCCCCCCC(=O)Oc1c(Cl)c(OC)nc(C(Cl)(Cl)Cl)c1Cl [DM-O-PEN]
activity against i.c.-implanted tumor in comparison to PEN and DM-PEN (in words) [1]: significant activity | Tumor-Free-Surv/Total ([1]; IP 90 mg/kg/dose): 0/5 | Survivors [1, 7]: 0/5

COc1nc(C(Cl)(Cl)Cl)c(Cl)c(OC(=O)c2ccco2)c1Cl [DM-F-PEN]
Tumor-Free-Surv/Total [6, 14]: 5/5 | activity against i.c.-implanted tumor in comparison to PEN and DM-PEN (in words) [1]: significant activity | Tumor-Free-Surv/Total ([1]; IP 135 mg/kg/dose): 2/5 | Survivors [1, 7]: 2/5

COc1nc(C(Cl)(Cl)Cl)c(Cl)c(OC(=O)CI)c1Cl [DM-IA-PEN]
Dose (mg/kg) with observed lethality level [6, 15]: 60 (LD40) | Tumor-Free-Surv/Total [6, 15]: 1/5

O=NN(CCCl)C(=O)NCCCl [BCNU (carmustine), carmustine]
50-DAY SURV/TOTAL [3, 16]: 3/6 | APPROX. NET LOG10 CHANGE IN TUMOR BURDEN AT END OF Rx [3, 16]: ca −8.8 | MEDIAN DAY OF DEATH [3, 16]: 27.0 | 50-DAY SURV/TOTAL [3, 17]: 6/6 | 50-DAY SURV/TOTAL [5, 16]: 0/6 | % ILS [5, 16]: 0% | APPROX. NET LOG10 CHANGE IN TUMOR BURDEN AT END OF Rx [5, 16]: 0 | MEDIAN DAY OF DEATH [5, 16]: 9.0 | 50-DAY SURV/TOTAL [5, 17]: 0/6 | % ILS [5, 17]: −6% | APPROX. NET LOG10 CHANGE IN TUMOR BURDEN AT END OF Rx [5, 17]: +0.4 | MEDIAN DAY OF DEATH [5, 17]: 8.5

COCC(=O)Oc1c(Cl)c(OC)nc(C(Cl)(Cl)Cl)c1Cl [DM-MA-PEN]
T-C [6, 18]: >41.0 days | Tumor-Free-Surv/Total [6, 18]: 5/5 | activity against i.c.-implanted tumor in comparison to PEN and DM-PEN (in words) [1]: significant activity | Tumor-Free-Surv/Total ([1]; IP 90 mg/kg/dose): 1/5 | Survivors [1, 7]: 1/5 | Median % ILS (dying mice only) ([1]; oral (gavage) 90 mg/kg/dose): +110% | Tumor-Free-Surv/Total ([1]; oral (gavage) 90 mg/kg/dose): 1/5

COc1nc(C(Cl)(Cl)Cl)c(Cl)c(OC(=O)CCl)c1Cl [DM-CA-PEN]
T-C [6, 15]: >41.0 days | Tumor-Free-Surv/Total [6, 15]: 3/5 | T-C [6, 18]: >41.0 days | Tumor-Free-Surv/Total [6, 18]: 5/5 | Median % ILS (dying mice only) ([1]; oral (gavage) 135 mg/kg/dose): +84%

COc1nc(C(Cl)(Cl)Cl)c(Cl)c(OC(=O)c2ccc([N+](=O)[O-])cc2)c1Cl [DM-NB-PEN]
Tumor-Free-Surv/Total ([6]; sc MX-1, IP 135 mg/kg/dose, Days 12-16): 5/5

COc1nc(C(Cl)(Cl)Cl)c(Cl)c(OC(=O)c2ccccc2)c1Cl [DM-B-PEN]
antitumor activity (in words) ([6]; i.p. administration): high activity | antitumor activity (in words) ([6]; oral drug treatment): low antitumor activity | Tumor-Free-Surv/Total ([6]; sc MX-1, IP 135 mg/kg/dose, Days 11-15): 5/5 | T-C [6, 19]: -1.4 days | Tumor-Free-Surv/Total [6, 19]: 0/5 | Median % ILS (dying mice only) ([1]; IP 135 mg/kg/dose): +84% | Median % ILS (dying mice only) ([1]; oral (gavage) 135 mg/kg/dose): +12%

COc1nc(C(Cl)(Cl)Cl)c(Cl)c(OC(=O)Cc2cccs2)c1Cl [DM-TA-PEN]
Tumor-Free-Surv/Total [6, 14]: 3/5 | Median % ILS (dying mice only) ([1]; IP 90 mg/kg/dose): +75%
